# Data reported in ChEMBL document CHEMBL3507680, “University of Dundee, Gates Library screen for HepG2 cell viability”.
# Test: Human HepG2 cell viability assay in 384 well format
# Type: toxicity, cell-based
# Set-up: dose 125 nL, time 70.5 hour; concentration not given beside the values
# Settings: HepG2 cells, read-out: Inhibition
row,Compound,cytotoxicity at 70.5 h [%]
1,CC(C)c1[nH]c2ncccc2c1CN1CCC(O)CC1,-3.13
2,CCOc1cc(C(=O)NS(=O)(=O)c2cccc(C#N)c2)ccc1OC,-10
3,COc1ccc(OC)c(C(C(=O)O)N2CCSCC2)c1 (centres undefined),-4.28
4,CN1Cc2ccccc2CC2(CCN(Cc3nccn3C)CC2)C1=O,-3.31
5,O=C(CCOc1ccccc1F)N1CCCCC1Cn1cccn1 (centres undefined),-4.38
6,CCCC(=O)NCC(Cc1cccc(F)c1)N1CCCC1=O (centres undefined),-3.15
7,Cc1ccccc1C(=O)NCc1ccnc(N(C)C)c1,0.094
8,COc1ccc(C[C@H]2CN(C(=O)c3ncccn3)CC[C@@H]2OC)cc1,-6.01
9,O=C(NCCNc1cccnc1)C(c1cccnc1)N1CCCC1 (centres undefined),-9.35
10,Cc1ccc(C(=O)Nc2nnc(C3CC3)s2)c(-n2cnnn2)c1C,-14.4
11,CCN(Cc1ccoc1)C(C(N)=O)c1cccc(Br)c1 (centres undefined),-7.25
12,CN(c1cccc(C#N)c1)S(=O)(=O)c1cc(C(=O)O)ccc1Cl,-12.6
13,O=C(c1cnccn1)N1CCc2ncnc(C3CCOC3)c2CC1 (centres undefined),-9.35
14,COCC(=O)N1CCN(c2cc(C)nc(C3CCCN3C(C)=O)c2)CC1 (centres undefined),-0.659
15,Cc1occc1C(=O)N1CCC2(CCCN(Cc3cccs3)C2)C1 (centres undefined),0.121
16,CN(CCc1ccncc1)C(=O)C1CSCN1C(=O)C1CCCC1 (centres undefined),-5.06
17,Cc1ccnn1CC(=O)N1CCN(C2CCc3ccccc3C2)CC1 (centres undefined),3.04
18,CNC(=O)C1Cn2ccnc2C2(CCN(Cc3cccs3)CC2)O1 (centres undefined),11.6
19,CS(=O)(=O)NC1CCN(CCc2ccccc2)CC1,-9.51
20,O=C(NC1CC2(CCN(CCO)CC2)c2ccccc21)c1ccncc1 (centres undefined),-5.59
21,Cc1ccc(NC2CCN(C(=O)c3ccc4c(c3)CCC4)CC2)nn1,-0.715
22,O=c1[nH]c(-c2ccccn2)nc2c1CCN(Cc1cccc(O)c1)C2,-4.95
23,Nc1ncc(-c2csc(NC(=O)C[C@H]3COCCN3)n2)cn1,-6.96

row,Compound,cytotoxicity at 70.5 h [%]
1,c1ccc(NCCn2cc(C3CCCNC3)nn2)cc1 (centres undefined),-3.12
2,CN(CC(N)=O)C(=O)c1csc(Br)c1,-7.59
3,O=C1CNc2ncnc(N3CCN(Cc4ccccc4)CC3)c2N1,12.6
4,Cc1nc(C)n(C2CCCN(C(=O)CCCOc3ccccc3)C2)n1 (centres undefined),3.66
5,Cc1cnn(CCCNC(=O)NC(C)C(=O)Nc2ccccc2)c1 (centres undefined),6.05
6,Cc1ccc(N2CCO[C@H]3CN(Cc4cccs4)C[C@H]32)nn1,8.57
7,c1cnn(CC2CCCCN2Cc2cn3ccsc3n2)c1 (centres undefined),-13.5
8,Cc1cc2nc(SCC(=O)N3CCCC3)n(-c3ccccc3)c(=O)c2[nH]1,-21.9
9,Cc1nc(CNCc2ccc(N3CCC(CO)CC3)nc2)cs1,-1.44
10,O=C(CC1CCc2ccccc21)N1CCC(O)(Cn2ccnc2)CC1 (centres undefined),-5.64
11,CNC(=O)c1ccc(C2CCCN(C(=O)c3sc(C)nc3C)C2)nc1 (centres undefined),2.08
12,NC(=O)c1ccc(N2CCN(Cc3ccc(F)cc3Cl)CC2)nn1,-9.22
13,N[C@H]1CC[C@@H](n2cc(C(=O)N[C@H]3CCCc4ccccc43)nn2)CC1,-10.4
14,Cc1cc(N[C@H]2CCCN(Cc3ccccc3)C2)n2nc(C)cc2n1,1.66
15,CCCc1nc(C)c(C(=O)NCCNc2ncccc2C#N)s1,0.537
16,C[S+]([O-])c1nncn1CC(=O)c1ccc(OC(F)F)cc1 (centres undefined),-2.01
17,CC(=O)Nc1nc(CN2CCOC(Cn3cncn3)C2)cs1 (centres undefined),-5.38
18,O=C(CSCc1ccccn1)NCC1CC1,0.905
19,CCNC(=O)[C@@H]1C[C@@H](NC(=O)Cc2ccccn2)CN1CCCSC,14.8
20,Cc1ccc(CC(=O)N2CCN(CC(O)C(C)(C)C)CC2)cn1 (centres undefined),0.113
21,CSCCc1nc(C(C)C)nn1-c1ccncc1C,-12.8
22,O=C1CNc2ncnc(Nc3cnn(Cc4ccccc4F)c3)c2N1,27.9
23,CN(Cc1nc2ccsc2c(=O)[nH]1)C[C@@H]1CCCN2CCCC[C@H]12,14.5

row,Compound,cytotoxicity at 70.5 h [%]
1,COCCN(C(=O)c1ccn(-c2ccc(OC)cc2)n1)C(C)C(N)=O (centres undefined),20.6
2,Cc1ccn(CCC(=O)N2CCOC(c3nc(-c4cccs4)no3)C2)n1 (centres undefined),-2.76
3,CCC(CO)n1cnc2scc(C)c2c1=O (centres undefined),-22.7
4,COc1ccccc1C(=O)N1CCCC1c1nncn1CC(C)C (centres undefined),-0.719
5,COCC(=O)N1CCC2(COCc3c(C)nc(N(C)C)nc32)C1 (centres undefined),15.4
6,CNC(=O)[C@@H]1C[C@H]2CN(Cc3ccc(C)s3)C[C@H]2N1C(C)=O,-1.67
7,N#CCCN(CC1CCOC1)Cn1ccc(-c2ccsc2)n1 (centres undefined),0.369
8,CC(C)N(C)Cc1cnc2n1CCN(C(=O)Cc1cccs1)C2C (centres undefined),-6.21
9,COc1ccc(-c2cnc(CN3CCCC3Cn3cccn3)o2)cc1 (centres undefined),-7.48
10,OCC1(Cc2ccc(F)cc2F)CCCN(Cc2ccncc2)C1 (centres undefined),-5.76
11,Cn1ncc2c1NC(=O)CC2c1cc2c(cc1Cl)OCO2 (centres undefined),17.7
12,CC(C)c1nc(C2CCCN(C(=O)CCn3cncn3)C2)no1 (centres undefined),-2.58
13,c1coc(CN2CCCC3(COCCN(Cc4c[nH]nn4)C3)C2)c1 (centres undefined),-2.53
14,CN(Cc1ccc2c(c1)OCCO2)C(=O)NCCc1cnn(C)c1,6.83
15,Cc1ccccc1-n1cc(-c2ccnc(N[C@@H](CO)C(C)C)n2)cn1,-7.32
16,CCn1cnnc1CNC(=O)N1CCN(c2cccc(OC)c2)CC1,-6.51
17,Cc1cc(N(C)C)nc(N2CC(n3cccn3)C2)n1,5.13
18,CC1(C)CN(C(=O)c2cc(F)cc3[nH]cnc23)CCS1,-11
19,COCC(=O)N1CCN(C)C(=O)C(Cc2ccc(-c3cccs3)cc2)C1 (centres undefined),-1.25
20,Cc1cccc(S(=O)(=O)N2CCCc3c(c(=O)n(C)n3C)C2)c1,-9.39
21,CS(=O)(=O)NC[C@H]1Cn2c(-c3ccc(F)cc3)cnc2CO1,-3.71
22,CC(NC(=O)NCC(C)(C)O)c1ccc(-c2ccncc2)cc1 (centres undefined),-1.45
23,CCc1nccn1C1CCCN(C(=O)c2ccc3nncn3c2)C1 (centres undefined),-6.04

row,Compound,cytotoxicity at 70.5 h [%]
1,CCc1ccc(CN2CCC3(CCCN(C(=O)N(C)C)C3)C2)o1 (centres undefined),-10.4
2,Cc1ccc(N2CC[C@@H]3[C@@H]2CCN3Cc2ccsc2)nn1,-0.146
3,Cc1cc(NC(=O)NCC2CCN(C(C)C)C2)no1 (centres undefined),-5.36
4,O=C(c1cn(-c2ccccc2Cl)nn1)N1CCSCC1,15.4
5,O=C(CN1C=Nc2ccccc2S1(=O)=O)NC1CCCCC1,3.38
6,CCN1CCN(C(=O)c2ccc(Cn3ccccc3=O)o2)CC1,-9.18
7,CN1CC(c2ccccc2)CC12CCN(C(=O)c1ccc(F)cc1)CC2 (centres undefined),-4.24
8,CCc1nnc(Nc2cc(C)nc(C3CN(C(C)=O)CCO3)c2)s1 (centres undefined),0.483
9,Cc1cc(C)cc(NCCC(=O)NC2CCCCC2)c1,1.57
10,C[C@@H]1CN(C(=O)c2cccs2)C[C@]12CCN(CCN(C)C)C2=O,21.2
11,Cc1cc(NC(C)C(=O)NCC(F)(F)F)nc(-c2ccncc2)n1 (centres undefined),-16.5
12,COC(CNC(=O)c1cn(C)nn1)c1ccccc1C (centres undefined),-3.6
13,CCN(CC)S(=O)(=O)N1CCCC1c1nnc2n1CCN(C)CC2 (centres undefined),-10.9
14,c1ccc(C2CN(CCc3ccncc3)CCO2)cc1 (centres undefined),-9.13
15,CS(=O)(=O)CCOCCNc1cncc(Br)c1,-3.24
16,Cn1cc(C(=O)CC2CCCN2C(=O)c2ccncc2F)cn1 (centres undefined),-9.05
17,Cn1cc(N2CC3(CCN(S(C)(=O)=O)C3)CC2=O)cn1 (centres undefined),2.06
18,CN(C)C(=O)COC[C@@]12CCC[C@@H]1CN(C1CCCC1)C2,-1.63
19,CC(C)c1nc(-c2cc(C(=O)O)c3ccccn23)cs1,10.6
20,c1csc(-c2nc(CN3CCCCC3Cn3cccn3)co2)c1 (centres undefined),-58
21,CCc1ccc(O)c(C(=O)NC2CCN(C(=O)OC)CC2)c1,-10.9
22,Cc1cc(CN2CC[C@H]3C(=O)N(c4cccnc4)CCO[C@H]3C2)no1,-4.94
23,Cc1nc(N)ncc1C(=O)N1CCCC1(C)C(=O)N(C)C (centres undefined),-3.98

row,Compound,cytotoxicity at 70.5 h [%]
1,COc1cc(-c2ccc(F)c3c2OC(CN)C3)cc(OC)c1OC (centres undefined),6.54
2,Cc1ccc(-c2cnnc(N3CCCC3c3nccs3)n2)o1 (centres undefined),-7.57
3,Cc1ncc(S(C)(=O)=O)c(N(C)CCCc2cnn(C)c2)n1,-3.73
4,c1csc(-c2noc(CNC3CCc4ncnn4C3)n2)c1 (centres undefined),-8.26
5,CCc1cc(CN(C)C(=O)CN2CC(c3ccccc3)CC2=O)on1 (centres undefined),3.32
6,O=C(CN1CCCC1Cn1cncn1)NCCc1c(F)cccc1F (centres undefined),27.9
7,N#Cc1c(Cl)nsc1NCc1cccnc1OC1CCCC1,-94.1
8,Cc1nc(C)c(C(=O)N2C[C@@H](C(=O)O)[C@H](C3CC3)C2)s1,-1.71
9,O=C(CC1CC1)NCc1cn2c(n1)CN(CC1CC1)CC2,-19.5
10,CNC(=O)C(C)(C)CNC(=O)Nc1ccncc1C,-9.08
11,O=C(NCc1cc(N2CCOCC2)ncn1)c1cccc(CO)n1,5.15
12,CCCS(=O)(=O)N1Cc2nccn2CC(CN(C)C)C1 (centres undefined),-10.3
13,COc1ccc(C(CC(=O)O)NC(=O)c2cc(C)on2)cc1 (centres undefined),-1.84
14,CN(C)c1ccc2c(c1)CN(C(=O)c1c[nH]cn1)C2c1cnco1 (centres undefined),29.3
15,O=c1[nH]c2nc(N3CCOCC3)ncc2c(=O)n1-c1cccc(F)c1,-2.92
16,O=S(=O)(Cc1nc(C2CC2)no1)c1cc(F)ccc1F,-12.2
17,CCCn1[nH]cc/c1=N\C(=O)CN1CCCC1c1cccn1C (centres undefined),-2.18
18,CCn1nccc1C(=O)N1CCCCC1CCc1ccc(O)cc1 (centres undefined),11
19,c1ccc(CN2CCn3c(Cn4cncn4)cnc3C2)nc1,-10.2
20,c1ccc2oc(CN3CCCCC3Cn3cncn3)nc2c1 (centres undefined),-4.46
21,Cc1c(C)c(C)c2[nH]c(-c3cn(C4CCNCC4)nn3)nc2c1C,-5.74
22,CC(NC(=O)CN1CCN(c2ccncc2Cl)CC1)c1ccco1 (centres undefined),-7.35
